Assay results from ChEMBL document CHEMBL5579809, “Exploration of bromodomain ligand-linker conjugation sites for efficient CBP/p300 heterobifunctional degrader activity” (Bioorg Med Chem Lett, 2024).
Calls of active or inactive are those of the source. The rule behind the calls is not given here.

Assays:
[1] = biological target: T1, Protein cereblon/CREB-binding protein (Homo sapiens) (UniProt Q92793+Q96SW2); experiment: PROTAC activity at CRBN/HiBiT-tagged CBP in human HAP1 cells assessed as induction of CBP degradation by measuring maximal efficacy at 0.1 nM measured over 24 hrs by luminescence based analysis relative to control; format: cell-based
[2] = biological target: T1, Protein cereblon/CREB-binding protein (Homo sapiens); experiment: PROTAC activity at CRBN/HiBiT-tagged CBP in human HAP1 cells assessed as induction of CBP degradation by measuring maximal efficacy at 1 nM measured over 24 hrs by luminescence based analysis relative to control; format: cell-based
[3] = biological target: T1, Protein cereblon/CREB-binding protein (Homo sapiens); experiment: PROTAC activity at CRBN/HiBiT-tagged CBP in human HAP1 cells assessed as induction of CBP degradation by measuring maximal efficacy at 10 nM measured over 24 hrs by luminescence based analysis relative to control; format: cell-based
[4] = biological target: T1, Protein cereblon/CREB-binding protein (Homo sapiens); experiment: PROTAC activity at CRBN/HiBiT-tagged CBP in human HAP1 cells assessed as induction of CBP degradation by measuring maximal efficacy at 100 nM measured over 24 hrs by luminescence based analysis relative to control; format: cell-based
[5] = biological target: T1, Protein cereblon/CREB-binding protein (Homo sapiens); experiment: PROTAC activity at CRBN/HiBiT-tagged CBP in human HAP1 cells assessed as induction of CBP degradation by measuring maximal efficacy at 1000 nM measured over 24 hrs by luminescence based analysis relative to control; format: cell-based
[6] = biological target: T1, Protein cereblon/CREB-binding protein (Homo sapiens); experiment: PROTAC activity at CRBN/HiBiT-tagged CBP in human HAP1 cells assessed as induction of CBP degradation by measuring degradation rate at 0.1 nM measured over 24 hrs by luminescence based analysis; format: cell-based
[7] = biological target: T1, Protein cereblon/CREB-binding protein (Homo sapiens); experiment: PROTAC activity at CRBN/HiBiT-tagged CBP in human HAP1 cells assessed as induction of CBP degradation by measuring degradation rate at 1 nM measured over 24 hrs by luminescence based analysis; format: cell-based
[8] = biological target: T1, Protein cereblon/CREB-binding protein (Homo sapiens); experiment: PROTAC activity at CRBN/HiBiT-tagged CBP in human HAP1 cells assessed as induction of CBP degradation by measuring degradation rate at 10 nM measured over 24 hrs by luminescence based analysis; format: cell-based
[9] = biological target: T1, Protein cereblon/CREB-binding protein (Homo sapiens); experiment: PROTAC activity at CRBN/HiBiT-tagged CBP in human HAP1 cells assessed as induction of CBP degradation by measuring degradation rate at 100 nM measured over 24 hrs by luminescence based analysis; format: cell-based
[10] = biological target: T1, Protein cereblon/CREB-binding protein (Homo sapiens); experiment: PROTAC activity at CRBN/HiBiT-tagged CBP in human HAP1 cells assessed as induction of CBP degradation by measuring degradation rate at 1000 nM measured over 24 hrs by luminescence based analysis; format: cell-based
[11] = biological target: T1, Protein cereblon/CREB-binding protein (Homo sapiens); experiment: PROTAC activity at CRBN/HiBiT-tagged CBP in human HAP1 cells assessed as total cumulative degradation by measuring AUC at 0.01 nM measured over 24 hrs by luminescence based analysis; format: cell-based
[12] = biological target: T1, Protein cereblon/CREB-binding protein (Homo sapiens); experiment: PROTAC activity at CRBN/HiBiT-tagged CBP in human HAP1 cells assessed as total cumulative degradation by measuring AUC at 0.1 nM measured over 24 hrs by luminescence based analysis; format: cell-based
[13] = biological target: T1, Protein cereblon/CREB-binding protein (Homo sapiens); experiment: PROTAC activity at CRBN/HiBiT-tagged CBP in human HAP1 cells assessed as total cumulative degradation by measuring AUC at 1 nM measured over 24 hrs by luminescence based analysis; format: cell-based
[14] = biological target: T1, Protein cereblon/CREB-binding protein (Homo sapiens); experiment: PROTAC activity at CRBN/HiBiT-tagged CBP in human HAP1 cells assessed as total cumulative degradation by measuring AUC at 10 nM measured over 24 hrs by luminescence based analysis; format: cell-based
[15] = biological target: T1, Protein cereblon/CREB-binding protein (Homo sapiens); experiment: PROTAC activity at CRBN/HiBiT-tagged CBP in human HAP1 cells assessed as total cumulative degradation by measuring AUC at 100 nM measured over 24 hrs by luminescence based analysis; format: cell-based
[16] = biological target: T1, Protein cereblon/CREB-binding protein (Homo sapiens); experiment: PROTAC activity at CRBN/HiBiT-tagged CBP in human HAP1 cells assessed as total cumulative degradation by measuring AUC at 1000 nM measured over 24 hrs by luminescence based analysis; format: cell-based
[17] = biological target: T2, Protein cereblon/Histone acetyltransferase p300 (Homo sapiens) (UniProt Q09472+Q96SW2); experiment: PROTAC activity at CRBN/HiBiT-tagged p300 in human HAP1 cells assessed as induction of p300 degradation by measuring degradation rate at 0.1 nM measured over 24 hrs by luminescence based analysis; format: cell-based
[18] = biological target: T2, Protein cereblon/Histone acetyltransferase p300 (Homo sapiens); experiment: PROTAC activity at CRBN/HiBiT-tagged p300 in human HAP1 cells assessed as induction of p300 degradation by measuring degradation rate at 1 nM measured over 24 hrs by luminescence based analysis; format: cell-based
[19] = biological target: T2, Protein cereblon/Histone acetyltransferase p300 (Homo sapiens); experiment: PROTAC activity at CRBN/HiBiT-tagged p300 in human HAP1 cells assessed as induction of p300 degradation by measuring degradation rate at 10 nM measured over 24 hrs by luminescence based analysis; format: cell-based
[20] = biological target: T2, Protein cereblon/Histone acetyltransferase p300 (Homo sapiens); experiment: PROTAC activity at CRBN/HiBiT-tagged p300 in human HAP1 cells assessed as induction of p300 degradation by measuring degradation rate at 100 nM measured over 24 hrs by luminescence based analysis; format: cell-based
[21] = biological target: T2, Protein cereblon/Histone acetyltransferase p300 (Homo sapiens); experiment: PROTAC activity at CRBN/HiBiT-tagged p300 in human HAP1 cells assessed as induction of p300 degradation by measuring degradation rate at 1000 nM measured over 24 hrs by luminescence based analysis; format: cell-based
[22] = biological target: T2, Protein cereblon/Histone acetyltransferase p300 (Homo sapiens); experiment: PROTAC activity at CRBN/HiBiT-tagged p300 in human HAP1 cells assessed as induction of p300 degradation by measuring maximal efficacy at 0.1 nM measured over 24 hrs by luminescence based analysis relative to control; format: cell-based
[23] = biological target: T2, Protein cereblon/Histone acetyltransferase p300 (Homo sapiens); experiment: PROTAC activity at CRBN/HiBiT-tagged p300 in human HAP1 cells assessed as induction of p300 degradation by measuring maximal efficacy at 1 nM measured over 24 hrs by luminescence based analysis relative to control; format: cell-based
[24] = biological target: T2, Protein cereblon/Histone acetyltransferase p300 (Homo sapiens); experiment: PROTAC activity at CRBN/HiBiT-tagged p300 in human HAP1 cells assessed as induction of p300 degradation by measuring maximal efficacy at 10 nM measured over 24 hrs by luminescence based analysis relative to control; format: cell-based
[25] = biological target: T2, Protein cereblon/Histone acetyltransferase p300 (Homo sapiens); experiment: PROTAC activity at CRBN/HiBiT-tagged p300 in human HAP1 cells assessed as induction of p300 degradation by measuring maximal efficacy at 100 nM measured over 24 hrs by luminescence based analysis relative to control; format: cell-based
[26] = biological target: T2, Protein cereblon/Histone acetyltransferase p300 (Homo sapiens); experiment: PROTAC activity at CRBN/HiBiT-tagged p300 in human HAP1 cells assessed as induction of p300 degradation by measuring maximal efficacy at 1000 nM measured over 24 hrs by luminescence based analysis relative to control; format: cell-based
[27] = biological target: T2, Protein cereblon/Histone acetyltransferase p300 (Homo sapiens); experiment: PROTAC activity at CRBN/HiBiT-tagged p300 in human HAP1 cells assessed as total cumulative degradation by measuring AUC at 0.01 nM measured over 24 hrs by luminescence based analysis; format: cell-based
[28] = biological target: T2, Protein cereblon/Histone acetyltransferase p300 (Homo sapiens); experiment: PROTAC activity at CRBN/HiBiT-tagged p300 in human HAP1 cells assessed as total cumulative degradation by measuring AUC at 0.1 nM measured over 24 hrs by luminescence based analysis; format: cell-based
[29] = biological target: T2, Protein cereblon/Histone acetyltransferase p300 (Homo sapiens); experiment: PROTAC activity at CRBN/HiBiT-tagged p300 in human HAP1 cells assessed as total cumulative degradation by measuring AUC at 1 nM measured over 24 hrs by luminescence based analysis; format: cell-based
[30] = biological target: T2, Protein cereblon/Histone acetyltransferase p300 (Homo sapiens); experiment: PROTAC activity at CRBN/HiBiT-tagged p300 in human HAP1 cells assessed as total cumulative degradation by measuring AUC at 10 nM measured over 24 hrs by luminescence based analysis; format: cell-based
[31] = biological target: T2, Protein cereblon/Histone acetyltransferase p300 (Homo sapiens); experiment: PROTAC activity at CRBN/HiBiT-tagged p300 in human HAP1 cells assessed as total cumulative degradation by measuring AUC at 100 nM measured over 24 hrs by luminescence based analysis; format: cell-based
[32] = biological target: T2, Protein cereblon/Histone acetyltransferase p300 (Homo sapiens); experiment: PROTAC activity at CRBN/HiBiT-tagged p300 in human HAP1 cells assessed as total cumulative degradation by measuring AUC at 1000 nM measured over 24 hrs by luminescence based analysis; format: cell-based
[33] = biological target: Protein cereblon/Bromodomain-containing protein 4 (Homo sapiens) (UniProt O60885+Q96SW2); experiment: PROTAC activity at CRBN/HiBiT-tagged BRD4 in human HAP1 cells assessed as induction of BRD4 degradation measured over 24 hrs by luminescence based analysis; format: cell-based
[34] = biological target: T2, Protein cereblon/Histone acetyltransferase p300 (Homo sapiens); experiment: Binding affinity to recombinant CRBN/p300 bromodomain (unknown origin) assessed as ternary complex formation at 10 to 100 nM by Alphascreen-based proximity assay; format: protein assay; settings: dose 10-100 nM
[35] = biological target: T1, Protein cereblon/CREB-binding protein (Homo sapiens); experiment: Binding affinity to recombinant CRBN/CBP bromodomain (unknown origin) assessed as ternary complex formation at 10 to 100 nM by Alphascreen-based proximity assay; format: protein assay; settings: dose 10-100 nM
[36] = biological target: T2, Protein cereblon/Histone acetyltransferase p300 (Homo sapiens); experiment: Binding affinity to recombinant CRBN/p300 bromodomain (unknown origin) assessed as ternary complex formation at 1 to 1000 nM by Alphascreen-based proximity assay; format: protein assay; settings: dose 1-1000 nM
[37] = biological target: T1, Protein cereblon/CREB-binding protein (Homo sapiens); experiment: Binding affinity to recombinant CRBN/CBP bromodomain (unknown origin) assessed as ternary complex formation at 1 to 1000 nM by Alphascreen-based proximity assay; format: protein assay; settings: dose 1-1000 nM

T1 sequence (Q92793 2-2442 limits assumed): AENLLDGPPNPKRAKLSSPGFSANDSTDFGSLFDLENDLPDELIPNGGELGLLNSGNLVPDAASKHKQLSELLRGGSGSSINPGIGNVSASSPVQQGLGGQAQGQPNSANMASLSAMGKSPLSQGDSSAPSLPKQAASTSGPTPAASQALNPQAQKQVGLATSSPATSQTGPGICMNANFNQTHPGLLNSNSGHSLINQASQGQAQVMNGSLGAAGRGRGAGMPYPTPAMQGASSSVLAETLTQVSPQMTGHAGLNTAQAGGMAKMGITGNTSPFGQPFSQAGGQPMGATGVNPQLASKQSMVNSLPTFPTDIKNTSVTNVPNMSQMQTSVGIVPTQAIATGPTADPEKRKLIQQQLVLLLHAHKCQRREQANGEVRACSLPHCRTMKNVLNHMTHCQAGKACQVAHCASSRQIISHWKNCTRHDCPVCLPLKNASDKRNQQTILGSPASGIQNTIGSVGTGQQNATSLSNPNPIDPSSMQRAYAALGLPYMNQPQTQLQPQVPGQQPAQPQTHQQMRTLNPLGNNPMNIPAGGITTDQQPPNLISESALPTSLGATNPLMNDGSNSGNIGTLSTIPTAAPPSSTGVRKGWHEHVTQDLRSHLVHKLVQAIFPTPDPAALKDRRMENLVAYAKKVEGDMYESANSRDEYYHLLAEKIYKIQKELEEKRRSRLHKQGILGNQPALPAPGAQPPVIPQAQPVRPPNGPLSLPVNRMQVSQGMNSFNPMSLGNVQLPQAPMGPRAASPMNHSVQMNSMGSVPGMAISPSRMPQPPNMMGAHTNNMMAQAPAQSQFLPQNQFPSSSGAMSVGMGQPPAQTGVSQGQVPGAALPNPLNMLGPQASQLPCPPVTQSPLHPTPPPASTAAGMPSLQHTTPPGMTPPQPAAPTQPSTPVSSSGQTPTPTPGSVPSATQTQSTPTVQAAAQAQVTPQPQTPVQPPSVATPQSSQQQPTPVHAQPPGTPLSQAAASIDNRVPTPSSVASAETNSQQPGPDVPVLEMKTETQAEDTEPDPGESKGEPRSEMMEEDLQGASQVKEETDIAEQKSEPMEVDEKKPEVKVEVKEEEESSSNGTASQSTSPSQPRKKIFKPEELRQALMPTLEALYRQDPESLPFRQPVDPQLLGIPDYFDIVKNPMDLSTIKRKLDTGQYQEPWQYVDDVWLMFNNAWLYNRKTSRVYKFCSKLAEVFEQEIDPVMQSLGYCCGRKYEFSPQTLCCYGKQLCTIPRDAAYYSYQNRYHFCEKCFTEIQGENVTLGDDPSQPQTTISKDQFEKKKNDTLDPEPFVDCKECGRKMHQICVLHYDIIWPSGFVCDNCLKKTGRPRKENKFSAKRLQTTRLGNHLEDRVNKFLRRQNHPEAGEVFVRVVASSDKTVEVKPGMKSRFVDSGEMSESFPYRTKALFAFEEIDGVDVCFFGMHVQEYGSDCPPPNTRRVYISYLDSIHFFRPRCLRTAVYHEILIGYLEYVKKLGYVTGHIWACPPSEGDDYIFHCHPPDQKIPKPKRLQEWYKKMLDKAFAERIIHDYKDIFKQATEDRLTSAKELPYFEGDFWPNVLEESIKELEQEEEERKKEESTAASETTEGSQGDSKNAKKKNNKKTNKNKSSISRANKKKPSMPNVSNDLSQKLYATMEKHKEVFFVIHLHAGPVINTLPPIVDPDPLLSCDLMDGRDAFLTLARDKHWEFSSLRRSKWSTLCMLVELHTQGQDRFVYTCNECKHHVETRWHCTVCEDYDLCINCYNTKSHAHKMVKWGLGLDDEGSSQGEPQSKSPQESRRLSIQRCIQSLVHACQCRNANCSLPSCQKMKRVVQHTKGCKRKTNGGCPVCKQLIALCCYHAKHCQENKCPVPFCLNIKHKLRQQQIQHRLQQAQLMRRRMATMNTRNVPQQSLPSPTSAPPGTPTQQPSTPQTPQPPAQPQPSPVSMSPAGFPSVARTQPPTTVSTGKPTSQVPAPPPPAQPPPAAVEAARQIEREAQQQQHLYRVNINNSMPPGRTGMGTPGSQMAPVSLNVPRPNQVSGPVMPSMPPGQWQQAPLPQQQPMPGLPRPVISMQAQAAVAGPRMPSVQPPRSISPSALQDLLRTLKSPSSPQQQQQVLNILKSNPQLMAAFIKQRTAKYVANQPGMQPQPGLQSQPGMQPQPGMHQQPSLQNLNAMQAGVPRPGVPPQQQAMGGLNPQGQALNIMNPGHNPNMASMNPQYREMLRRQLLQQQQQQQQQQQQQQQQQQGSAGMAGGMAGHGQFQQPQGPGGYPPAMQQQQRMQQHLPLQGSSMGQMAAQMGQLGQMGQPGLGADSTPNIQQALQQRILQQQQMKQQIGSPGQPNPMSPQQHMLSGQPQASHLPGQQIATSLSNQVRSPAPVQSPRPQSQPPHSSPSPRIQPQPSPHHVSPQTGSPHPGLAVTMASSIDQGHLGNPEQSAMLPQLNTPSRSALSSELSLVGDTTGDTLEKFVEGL
T1 sequence (Q96SW2 whole entry partner): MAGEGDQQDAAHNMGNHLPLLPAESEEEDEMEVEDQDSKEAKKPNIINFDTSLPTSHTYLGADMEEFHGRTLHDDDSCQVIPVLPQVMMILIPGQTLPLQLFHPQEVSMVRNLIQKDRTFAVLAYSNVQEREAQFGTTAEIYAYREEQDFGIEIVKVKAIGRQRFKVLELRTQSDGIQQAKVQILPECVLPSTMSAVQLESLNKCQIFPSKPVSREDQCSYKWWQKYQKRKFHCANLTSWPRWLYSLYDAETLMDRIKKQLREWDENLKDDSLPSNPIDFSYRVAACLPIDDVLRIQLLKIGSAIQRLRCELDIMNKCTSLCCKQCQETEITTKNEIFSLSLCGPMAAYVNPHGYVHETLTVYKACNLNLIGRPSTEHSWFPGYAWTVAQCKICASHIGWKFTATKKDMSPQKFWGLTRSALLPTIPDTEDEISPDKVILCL
Sequence of Protein cereblon/Bromodomain-containing protein 4 (Homo sapiens) (Q96SW2 whole entry, looked up, other chains not shown): as the sequence (Q96SW2 whole entry partner) above

Structure (SMILES)	Emax [1]	Emax [2]	Emax [3]	Emax [4]	Emax [5]	Activity [6]	Activity [7]	Activity [8]	Activity [9]	Activity [10]	AUC [11]	AUC [12]	AUC [13]	AUC [14]	AUC [15]	AUC [16]	Activity [18]	Activity [19]	Activity [20]	Activity [21]	also measured
CNC(=O)N1CCc2c(c(N3CCCc4cc(-c5cnn(C)c5)c(C(F)(F)F)cc43)nn2C2CCN(C(=O)CCOCCOCCOCCOCCNc3ccc4c(c3)C(=O)N(C3CCC(=O)NC3=O)C4=O)CC2)C1 (stereo not drawn)	20%	61%	85%	88%	80%	0.21 h⁻¹	0.63 h⁻¹	1.3 h⁻¹	0.83 h⁻¹	0.32 h⁻¹	24.1	20.8	10.7	4.4	4	7.4	0.41 h⁻¹	1.3 h⁻¹	1 h⁻¹	0.42 h⁻¹	Activity [17]: 1 10^-4/hr; Emax [22]: 17%; Emax [23]: 56%; Emax [24]: 82%; Emax [25]: 88%; Emax [26]: 84%; AUC [27]: 26.5; AUC [28]: 23.2; AUC [29]: 12.3; AUC [30]: 5.2; AUC [31]: 3.9; AUC [32]: 6; Activity [33]: inactive; Activity [34]: Active; Activity [35]: Active
CNC(=O)N1CCc2c(c(N3CCCc4cc(-c5cnn(C)c5)c(C(F)F)cc43)nn2C2CCN(C(=O)CCOCCNc3ccc4c(c3)C(=O)N(C3CCC(=O)NC3=O)C4=O)CC2)C1 (stereo not drawn)	11%	44%	68%	65%	64%	1.2 10^-4/hr	0.26 h⁻¹	0.31 h⁻¹	0.19 h⁻¹	0.36 h⁻¹	25.6	23.7	15.6	10.3	12.1	19.5	0.2 h⁻¹	0.35 h⁻¹	0.29 h⁻¹	0.09 h⁻¹	Emax [23]: 44%; Emax [24]: 71%; Emax [25]: 73%; Emax [26]: 58%; AUC [27]: 27.3; AUC [28]: 24.7; AUC [29]: 16.1; AUC [30]: 9.2; AUC [31]: 9.4; AUC [32]: 16.5; Activity [33]: inactive; Activity [34]: Active; Activity [35]: Active
CNC(=O)N1CCc2c(c(N3CCCc4cc(-c5cnn(C)c5)c(C(F)F)cc43)nn2C2CCN(C(=O)CCOCCOCCOCCOCCNc3ccc4c(c3)C(=O)N(C3CCC(=O)NC3=O)C4=O)CC2)C1 (stereo not drawn)	25%	63%	86%	89%	83%	0.12 h⁻¹	0.54 h⁻¹	1.1 h⁻¹	0.81 h⁻¹	0.4 h⁻¹	24.7	20.7	10.4	4.4	3.9	6.4	0.37 h⁻¹	1 h⁻¹	1 h⁻¹	0.57 h⁻¹	Activity [17]: 0.02 h⁻¹; Emax [22]: 27%; Emax [23]: 57%; Emax [24]: 83%; Emax [25]: 88%; Emax [26]: 86%; AUC [27]: 26.1; AUC [28]: 21.7; AUC [29]: 12.2; AUC [30]: 5.1; AUC [31]: 3.7; AUC [32]: 4.8; Activity [33]: inactive; Activity [36]: Active; Activity [37]: Active
